Reference: ChEMBL document CHEMBL1201862, “PubChem BioAssay data set” (2004)
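Exposure lasted 48 hours, with cells grown in 96-well plates and compounds tested at five concentrations. The concentration for 50% growth inhibition is given as GI50.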 Calls of active or inactive are those of the source. Rule as the data show it: active = GI50 up to about 1.1 µM and inactive = higher.

What was measured:
Experiment in all cases: inhibition of tumour cell growth, NCI panel, 48 h
[1] = system: SW-620
[2] = system: MDA-MB-231
[3] = system: PC-3
[4] = system: LOX IMVI
[5] = system: COLO 205
[6] = system: 786-0
[7] = system: RPMI-8226
[8] = system: UACC-62
[9] = system: UO-31
[10] = system: SK-MEL-2
[11] = system: OVCAR-3
[12] = system: NCI-H522
[13] = system: MCF7
[14] = system: HCT-116
[15] = system: U-251
[16] = system: NCI/ADR-RES
[17] = system: OVCAR-4
[18] = system: SK-OV-3
[19] = system: SN12C
[20] = system: HL-60

| Structure (SMILES) | GI50 [1] | GI50 [2] | GI50 [3] | GI50 [4] | GI50 [5] | GI50 [6] | GI50 [7] | GI50 [8] | GI50 [9] | GI50 [10] | GI50 [11] | GI50 [12] | GI50 [13] | GI50 [14] | GI50 [15] | GI50 [16] | GI50 [17] | GI50 [18] | GI50 [19] | GI50 [20] |
| --- | --- | --- | --- | --- | --- | --- | --- | --- | --- | --- | --- | --- | --- | --- | --- | --- | --- | --- | --- | --- |
| CCN(CC)CCCNc1nncc2c(C)c3[nH]c4ccc(OC)cc4c3cc12 | 184 nM (active) | 716 nM (active) | 358 nM (active) | 189 nM (active) | 1030 nM (active) | 222 nM (active) | 724 nM (active) | 1290 nM (inactive) | 3170 nM (inactive) | 1020 nM (active) | 604 nM (active) | 25.6 nM (active) | 97.5 nM (active) | 277 nM (active) | 304 nM (active) | 38800 nM (inactive) | 618 nM (active) | 1170 nM (inactive) | 271 nM (active) | 910 nM (active) |
| c1ccc(-c2cc(-c3ccncc3)cc(-c3ccncc3)n2)cc1 | > 100000 nM (inactive) | > 100000 nM (inactive) | > 100000 nM (inactive) | > 100000 nM (inactive) | > 100000 nM (inactive) | 69300 nM (inactive) | > 100000 nM (inactive) | > 100000 nM (inactive) | > 100000 nM (inactive) | > 100000 nM (inactive) | > 100000 nM (inactive) | 18200 nM (inactive) | 618 nM (active) | > 100000 nM (inactive) | 51300 nM (inactive) | > 100000 nM (inactive) | > 100000 nM (inactive) | 80700 nM (inactive) | > 100000 nM (inactive) | > 100000 nM (inactive) |
| COc1ccc([N+](=O)[O-])c2c(NCCCN(C)C)c3ccccc3nc12 | 92.9 nM (active) | 466 nM (active) | 27.6 nM (active) | 461 nM (active) | 95.3 nM (active) | 77.8 nM (active) | 218 nM (active) | 127 nM (active) | 255 nM (active) | 131 nM (active) | 125 nM (active) | 28.6 nM (active) | 15.5 nM (active) | 112 nM (active) | 152 nM (active) | 2870 nM (inactive) | 35.4 nM (active) | 330 nM (active) | 260 nM (active) | 662 nM (active) |
| COC(=O)[C@@H]1C2OC(C)(C)OC2CN1C(=O)OCc1ccccc1 (stereo not given in full) | > 100000 nM (inactive) | > 100000 nM (inactive) | > 100000 nM (inactive) | > 100000 nM (inactive) | > 100000 nM (inactive) | > 100000 nM (inactive) | > 100000 nM (inactive) | > 100000 nM (inactive) | > 100000 nM (inactive) | > 100000 nM (inactive) | > 100000 nM (inactive) | > 100000 nM (inactive) | > 100000 nM (inactive) | > 100000 nM (inactive) | > 100000 nM (inactive) | > 100000 nM (inactive) | > 100000 nM (inactive) | > 100000 nM (inactive) | > 100000 nM (inactive) | > 100000 nM (inactive) |
| COc1cc(C2SCC(=O)N2c2ccc(-n3c(-c4ccccc4)nc4ccccc4c3=O)cc2)cc(OC)c1OC (stereo not given) | > 100000 nM (inactive) | > 100000 nM (inactive) | > 100000 nM (inactive) | > 100000 nM (inactive) | > 100000 nM (inactive) | > 100000 nM (inactive) | > 100000 nM (inactive) | 41200 nM (inactive) | 8710 nM (inactive) | > 100000 nM (inactive) | > 100000 nM (inactive) | > 100000 nM (inactive) | > 100000 nM (inactive) | > 100000 nM (inactive) | > 100000 nM (inactive) | > 100000 nM (inactive) | > 100000 nM (inactive) | 97100 nM (inactive) | > 100000 nM (inactive) | > 100000 nM (inactive) |
| CC(=O)OC(C)(C)/C=C/C(=O)[C@](C)(O)[C@H]1[C@H](O)C[C@@]2(C)[C@@H]3CC=C4[C@@H](C[C@H](O)C(=O)C4(C)C)[C@]3(C)C(=O)C[C@]12C | < 10 nM (active) | < 10 nM (active) | < 10 nM (active) | < 10 nM (active) | < 10 nM (active) | < 10 nM (active) | < 10 nM (active) | < 10 nM (active) | < 10 nM (active) | < 10 nM (active) | < 10 nM (active) | < 10 nM (active) | < 10 nM (active) | < 10 nM (active) | < 10 nM (active) | 11.2 nM (active) | < 10 nM (active) | < 10 nM (active) | < 14.3 nM (active) | < 10 nM (active) |
| Oc1cc(-c2ccccc2)nc2ncccc12 | 43.8 nM (active) | 418 nM (active) | 68.1 nM (active) | 55.2 nM (active) | 85.5 nM (active) | 160 nM (active) | 171 nM (active) | 39.6 nM (active) | 272 nM (active) | 30.3 nM (active) | 145 nM (active) | 52.5 nM (active) | 37.2 nM (active) | 71.9 nM (active) | 92.7 nM (active) | 65.5 nM (active) | 15000 nM (inactive) | 126 nM (active) | 268 nM (active) | 47.1 nM (active) |
